This note sets out measurements from patent US8338480B2, “Combination treatment of metabolic disorders” (Wellstat Therapeutics Corporation, priority 2006, dated 2012).

Counter-ions that a name gives are not always drawn.

Common to all, as to format: in vivo
Assay [1] concerns Gold Thioglucose-obese mice. Put plainly: Serum glucose, triglycerides and free fatty acids in gold thioglucose-obese mice (Example 1). The settings on record: GTG-obese mice, after two weeks. The protocol:
Systemic administration of gold thioglucose (GTG) damages glucose-sensing neurons in the hypothalamus, and consequently impairs regulation of satiety, leading to chronic hyperphagia and consequent obesity.
Mice received single daily oral treatment with Compound BI, rosiglitazone or combinations of the two drugs. A group of lean control mice on a standard low fat rodent chow was also included.
• 1. Vehicle (1% hydroxypropylmethylcellulose) • 2. Compound BI 30 mg/kg • 3. Compound BI 100 mg/kg • 4. Rosiglitazone (RSG) 3 mg/kg • 5. RSG 3 mg/kg+Compound BI 30 mg/kg • 6. RSG 3 mg/kg+Compound BI 100 mg/kg • 7. Lean Control (no treatment)
After two weeks, blood samples were collected from the retro-orbital sinus for measurement of serum glucose, triglycerides, and free fatty acids.

In assay [2] the test system is db/db mice. The experiment in a line: Serum glucose in db/db mice, combinations with rosiglitazone or pioglitazone, 4 weeks (Example 5). The settings on record: 4 weeks oral once per day. The protocol: (§1) Male db/db mice have a defect in the receptor for the appetite-regulating protein leptin and consequently develop hyperphagia, obesity, insulin resistance, hyperglycemia, hypertriglyceridemia. Male db/db mice are an accepted animal model for Type II diabetes. The effect of a range of single daily doses of orally administered Compound BI was assessed in this model, and the efficacy of rosiglitazone alone and in combination with Compound BI was also examined.
Male C57BL/Ksola db/db mice (“db/db mice”) were obtained from Harlan (Indianapolis, Ind.) and allowed to acclimate for a minimum of one week.
(§2) Body weights and blood glucose levels were measured and animals were sorted groups of 6-7 mice with equivalent mean body weights in each group. […].
• 12. Vehicle • 13. Compound BI 100 mg/kg/day • 14. Rosiglitazone 3 mg/kg • 15. Rosiglitazone 3 mg/kg+Compound BI 100 mg/kg • 16. Pioglitazone 30 mg/kg • 17. Pioglitazone 30 mg/kg+Compound BI 100 mg/kg • 18. Pioglitazone 100 mg/kg • 19. Pioglitazone 100 mg/kg+Compound BI 100 mg/kg
Drug preparation: Compound BI was suspended in a vehicle comprising 1% aqueous hydroxypropylmethylcellulose, using a tissue homogenizer to minimize particle size and maximize uniformity of the suspension. Pioglitazone and rosiglitazone were suspended in the same vehicle after pulverization of commercial tablets of each of these drugs. Drug concentrations in the dosing suspension for each treatment group were adjusted according to body weights so that a constant volume of 0.4 ml provided appropropriate drug doses in all groups.
(§3) Drug Administration: Drugs were administered orally by gavage once per day for 28 days.
Blood sampling: For serum chemistry analysis, nonfasting blood samples (200 microliters) were obtained via the retro-orbital sinus and collected in serum separator tubes at 11 AM on day 28 after initiation of drug administration.

Assay [3] has as its system db/db mice. Put plainly: Serum glucose in db/db mice after two weeks (Example 4). On the procedure:
• 8. Vehicle (1% hydroxypropylmethylcellulose) • 9. Compound BI 100 mg/kg • 10. Rosiglitazone (RSG) 3 mg/kg • 11. Compound BI 100 mg/kg+RSG 3 mg/kg • 12. Compound CF 100 mg/kg • 13. Compound CF 100 mg/kg+RSG 3 mg/kg • 14. Compound CT 100 mg/kg+RSG 3 mg/kg • 15. […]
After two weeks, blood samples were collected from the retro-orbital sinus and processed for serum chemistry measurements.

The subject of assay [4] is db/db mice. The experiment in a line: Body weight and food consumption in db/db mice treated for 4 weeks (Example 2). The settings on record: for Body Weight (grams) Mean ± SD 4 Weeks / Food Consumption Week 2 / Food Consumption Week 3 / Food Consumption Week 4 / Change in Body Weight (grams): db/db mice; for Change in Body Weight (grams): initial to 4 weeks. The protocol:
as §1
Male C57BL/Ksola db/db mice (“db/db mice”) were obtained from Harlan (Indianapolis, Ind.) and allowed to acclimate for a minimum of one week. Animals received Purina 5008 Lab Diet and tap water ad libitum and were housed with 3-4 animals per cage. Male C57BL/6 mice of the same age were used as lean nondiabetic controls.
as §2
• 1. Lean Control (no treatment) • 2. Vehicle • 3. Compound BI 30 mg/kg/day • 4. Compound BI 100 mg/kg/day • 5. Compound BI 150 mg/kg/day • 6. Rosiglitazone 3 mg/kg • 7. Rosiglitazone 3 mg/kg+Compound BI 30 mg/kg • 8. Rosiglitazone 3 mg/kg+Compound BI 100 mg/kg • 9. Rosiglitazone 20 mg/kg • 10. Rosiglitazone 20 mg/kg+Compound BI 30 mg/kg • 11. Rosiglitazone 20 mg/kg+Compound BI 100 mg/kg
Drug preparation: Compound BI was suspended in a vehicle comprising 1% aqueous hydroxypropylmethylcellulose, using a tissue homogenizer to minimize particle size and maximize uniformity of the suspension. Rosiglitazone was suspended in the same vehicle. Drug concentrations in the dosing suspension for each treatment group were adjusted according to body weights so that a constant volume of 0.4 ml provided appropropriate drug doses in all groups.
as §3

Where [5] appears, read: Compound BI 30 mg/kg oral daily.
Where [6] appears, read: Compound BI 100 mg/kg oral daily.

On to `Cc1cccc(C)c1COc1cccc(C(=O)CCC(=O)O)c1` [Compound BI, 4-(3-(2,6-Dimethylbenzyloxy)phenyl)-4-oxobutyric acid], for which, in assay [1], the “blood glucose, triglycerides and free fatty acids (in words)” value is given as “dose-dependent decreases”. Moreover, the “Free Fatty Acids ± SEM” value was 969.2 ± 18.2 UMOL/L in assay [1] (setting [5]) and 936.2 ± 63.0 UMOL/L in assay [1] (setting [6]). Further, the “Glucose ± SEM” value in assay [1] (setting [5]) was found to be 205.8 ± 8.1 mg/dL; in assay [1] (setting [6]), 160.0 ± 17.7 mg/dL. Moreover, the entries for the “Triglycerides ± SEM” value in assay [1] (setting [5]) and in assay [1] (setting [6]) were 62.8 ± 3.0 mg/dL and 53.8 ± 7.4 mg/dL, respectively. In addition, in the assay with db/db mice [2] (Compound BI 100 mg/kg), the “Serum Glucose (mg/dL) Mean ± SD” value was determined as 376 ± 151 mg/dL. For the same molecule, the “Glucose ± SD” value in the assay with db/db mice [3] (compound alone 100 mg/kg) was determined as 206 ± 44 mg/dL. Also, in the assay with db/db mice [4] (Compound BI 30 mg/kg, RSG 3 mg/kg, alone or combined), the “body weight and food intake (in words)” value is “little effect on body weight and food intake”. For the same molecule, the “Body Weight (grams) Mean ± SD 4 Weeks” value is 50.3 ± 2.1 grams in the assay on db/db mice [4] (4 Weeks oral once per day, Compound BI 30 mg/kg); 47.4 ± 2.7 grams with db/db mice [4] (4 Weeks oral once per day, Compound BI 150 mg/kg); 47.8 ± 3.6 grams with db/db mice [4] (4 weeks oral once per day, Compound BI 100 mg/kg). Further, the “Food Consumption Week 2” value is recorded as 5.3 grams/24 hr/mouse with db/db mice [4] (Compound BI 30 mg/kg), 3.6 grams/24 hr/mouse in the assay on db/db mice [4] (Compound BI 100 mg/kg) and 3.1 grams/24 hr/mouse in the assay on db/db mice [4] (Compound BI 150 mg/kg). Besides, the “Food Consumption Week 3” value came out at 4.9 grams/24 hr/mouse in the assay with db/db mice [4] (Compound BI 30 mg/kg), 3.7 grams/24 hr/mouse in the assay on db/db mice [4] (Compound BI 100 mg/kg) and 4.1 grams/24 hr/mouse in the assay with db/db mice [4] (Compound BI 150 mg/kg). The “Food Consumption Week 4” value in the assay with db/db mice [4] (Compound BI 30 mg/kg) worked out at 5.6 grams/24 hr/mouse; in the assay with db/db mice [4] (Compound BI 100 mg/kg) it was 5.1 grams/24 hr/mouse; with db/db mice [4] (Compound BI 150 mg/kg) it was 6 grams/24 hr/mouse. Further, the results for the “Change in Body Weight (grams)” value in the assay with db/db mice [4] (Compound BI 30 mg/kg), in the assay on db/db mice [4] (Compound BI 100 mg/kg) and in the assay with db/db mice [4] (Compound BI 150 mg/kg) were “+8.4 grams”, “+6.3 grams” and “+6.6 grams”, respectively.
Regarding `CN(CCOc1ccc(CC2SC(=O)NC2=O)cc1)c1ccccn1` (stereo not shown) [RSG, rosiglitazone maleate, reference compound], in assay [1] (RSG 3 mg/kg oral daily), the “Free Fatty Acids ± SEM” value came to 813.8 ± 34.2 UMOL/L, the “Glucose ± SEM” value is on record as 215.8 ± 14.3 mg/dL and the “Triglycerides ± SEM” value worked out at 61.4 ± 4.3 mg/dL. Besides, the “Serum Glucose (mg/dL) Mean ± SD” value in the assay with db/db mice [2] (RSG 3 mg/kg) is given as 432 ± 138 mg/dL. In addition, in the assay on db/db mice [3] (RSG 3 mg/kg alone), the “Glucose ± SD” value is given as 258 ± 74 mg/dL. Also, the “Body Weight (grams) Mean ± SD 4 Weeks” value with db/db mice [4] (4 Weeks oral once per day, RSG 20 mg/kg) was determined as 51.4 ± 1.4 grams. Also, the “Body Weight (grams) Mean ± SD 4 Weeks” value in the assay with db/db mice [4] (4 weeks oral once per day, RSG 3 mg/kg) is 48.2 ± 2.6 grams. Further, in the assay with db/db mice [4] (RSG 3 mg/kg), the “Food Consumption Week 2” value amounted to 5.3 grams/24 hr/mouse, the “Food Consumption Week 3” value is 4.0 grams/24 hr/mouse, the “Food Consumption Week 4” value is on record as 4.8 grams/24 hr/mouse and the “Change in Body Weight (grams)” value is given as “+6.4 grams”. Besides, in the assay with db/db mice [4] (RSG 20 mg/kg), the “Food Consumption Week 2” value was determined as 5.4 grams/24 hr/mouse, the “Food Consumption Week 3” value is recorded as 5.9 grams/24 hr/mouse, the “Food Consumption Week 4” value amounted to 6.3 grams/24 hr/mouse and the “Change in Body Weight (grams)” value was “+10.3 grams”.
